This passage reports IC50 and inhibition results from patent US5719278A, “Tricyclic benzazepine vasopressin antagonists” (American Cyanamid Company, priority 1996, dated 1998).

In assay [1] the target is T1, Rat Kidney Medullary V2 Receptors (Rattus norvegicus, UniProt Q00788).
T1 construct: Medullary tissues from rat kidneys are dissected out; from tissue; host or cells: rat kidney medulla membranes
Nature of the assay: Binding Assay to Rat Kidney Medullary V2 Receptors. As to conditions: Rat Kidney Medullary V2 Receptors (no asterisk). The protocol: Binding Assay to Rat Kidney Medullary V2 Receptors
Medullary tissues from rat kidneys are dissected out, cut into small pieces and let soak in a […] sodium chloride solution containing 1.0 mM EDTA with many changes of the liquid phase, until the solution is clear of blood. The tissue is homogenized in a 0.25M sucrose solution containing 1.0 mM EDTA and 0.1 mM PMSF using a Potter-Elvehjem homogenizer with a teflon pestle. The homogenate is filtered through several layers (4 layers) of cheese cloth. The filtrate is rehomogenized using a dounce homogenizer, with a tight fitting pestle. The final homogenate is contrifuged at 1500×g for 15 min. The nuclear pellet is discarded and the supernatant fluid recentrifuged at 40,000×g for 30 min. The resulting pellet formed contains a dark inner part with the exterior, slightly pink. The pink outer part is suspended in a small amount of 50.0 mM Tris.HCl buffer, pH 7.4. The protein content is determined by the Lowry's method (Lowry et al, J. Biol. Chem., 1953). The membrane suspension is stored at -70° C., in 50.0 mM Tris.HCl, containing 0.2% inactivated BSA and 0.1 mM PMSF in aliquots of 1.0 ml containing 10.0 mg protein per ml of suspension until use in subsequent binding experiments.
For binding experiments, the following is added in μl volume to wells of a 96 well format of a microtiter plate: 100.0 μl of 100.0 mM Tris.HCl buffer containing 0.2% heat inactivated BSA, 10.0 mM MgCl2 and a mixture of protease inhibitors: leupeptin, 1.0 mg %; aprotinin, 1.0 mg %; 1,10-phenanthroline, 2.0 mg %; trypsin inhibitor, 10.0 mg % and 0.1 mM PMSF, 20.0 μl of [^3 H]Arginine^8, vasopressin (S.A. 75.0 Ci/mmole) at 0.8 nM and the reaction initiated by the addition of 80.0 μl of tissue membranes (200.0 μg tissue protein). The plates are left undisturbed on the bench top for 120 min. to reach equilibrium. Non-specific binding is assessed in the presence of 1.0 μM of unlabeled ligand, added in 20 μl volume. For test compounds, these are solubilized in 50% dimethylsulfoxide (DMSO) and added in 20.0 μl volume to a final incubation volume of 200 μl. Upon completion of binding, the content of each well is filtered off, using a Brandel® cell Harvester (Gaithersburg, Md.). The radioactivity trapped on the filter disk by the ligand-receptor complex is assessed by liquid scintillation counting in a Packard LS Counter, with an efficiency of 65% for tritium. The data are analyzed for IC50 values by the LUNDON-2 program for competition (LUNDON SOFTWARE, Ohio).

In another assay the target is T2, oxytocin receptors (Rattus norvegicus, UniProt P70536).
T2 construct: The uteri are dissected out, cleaned of fat and connective tissues; from tissue; host or cells: uterus of DES-treated female Sprague-Dawley rats
T2 sequence (P70536 1-388): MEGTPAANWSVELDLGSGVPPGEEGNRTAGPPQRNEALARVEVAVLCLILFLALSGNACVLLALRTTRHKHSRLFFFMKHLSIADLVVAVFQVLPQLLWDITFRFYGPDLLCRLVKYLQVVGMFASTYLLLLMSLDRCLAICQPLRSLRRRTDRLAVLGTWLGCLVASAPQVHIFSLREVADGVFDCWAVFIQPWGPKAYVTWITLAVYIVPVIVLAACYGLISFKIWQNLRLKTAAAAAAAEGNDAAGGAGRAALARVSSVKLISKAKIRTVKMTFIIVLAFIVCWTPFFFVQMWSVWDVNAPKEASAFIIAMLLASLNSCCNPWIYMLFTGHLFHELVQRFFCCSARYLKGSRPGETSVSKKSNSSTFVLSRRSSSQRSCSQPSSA
In words: Oxytocin Receptor Binding. The arrangement: species or system Sprague-Dawley rat. As to conditions: for IC50: 1.0 nM [^3 H]OT, 60 min., 22° C. As for the experimental part: Oxytocin Receptor Binding
Female Sprague-Dawley rats weighing approximately 200-250 g are injected intramuscularly (i.m.) with 0.3 mg/kg of body weight of diethylstilbestrol (DES). The rats are sacrificed 18 hours later under pentobarbital anesthesia. The uteri are dissected out, cleaned of fat and connective tissues and rinsed in 50 ml of normal saline. The tissue pooled from six rats is homogenized in 50 ml of […] TriS.HCl, containing 0.5 mM dithiothreitol and 1.0 mM EDTA, adjusted to pH 7.4, using a polytron at setting 6 with three passes of 10 sec each. The homogenate is passed through two (2) layers of cheesecloth and the filtrate contrifuged at 1000×g for 10 min. The clear supernatant is removed and recentrifuged at 165,000×g for 30 min. The resulting pellet containing the oxytocin receptors is resuspended in 50.0 mM Tris.HCl containing 5.0 mM MgCl2 at pH 7.4, to give a protein concentration of 2.5 mg/ml of tissue suspension. This preparation is used in subsequent binding assays with [^3 H]Oxytocin.
Binding of 3,5-[^3 H]Oxytocin ([^3 H]OT) to its receptors is done in microtiter plates using [^3 H]OT, at various concentrations, in an assay buffer of 50.0 mM Tris.HCl, pH 7.4 and containing 5.0 mM MgCl2, and a mixture of protease inhibitors: BSA, 0.1 mg; aprotinin, 1.0 mg; 1,10-phenanthroline, 2.0 mg; […], 10.0 mg; and PMSF, 0.3 mg per 100 ml of buffer solution. Non-specific binding is determined in the presence of 1.0 uM unlabeled OT. The binding reaction is terminated after 60 min., at 22° C., by rapid filtration through glass fiber filters using a Brandel® cell harvester (Biomedical Research and Development Laboratories, Inc., Gaithersburg, Md.). Competition experiments are conducted at equilibrium using 1.0 nM [^3 H]OT and varying the concentration of the displacing agents. The concentrations of agent displacing 50% of [^3 H]OT at its sites (IC50) are calculated by a computer assisted LUNDON-2 program (LUNDON SOFTWARE INC., Ohio, U.S.A.).

T1 sequence (Q00788 whole entry): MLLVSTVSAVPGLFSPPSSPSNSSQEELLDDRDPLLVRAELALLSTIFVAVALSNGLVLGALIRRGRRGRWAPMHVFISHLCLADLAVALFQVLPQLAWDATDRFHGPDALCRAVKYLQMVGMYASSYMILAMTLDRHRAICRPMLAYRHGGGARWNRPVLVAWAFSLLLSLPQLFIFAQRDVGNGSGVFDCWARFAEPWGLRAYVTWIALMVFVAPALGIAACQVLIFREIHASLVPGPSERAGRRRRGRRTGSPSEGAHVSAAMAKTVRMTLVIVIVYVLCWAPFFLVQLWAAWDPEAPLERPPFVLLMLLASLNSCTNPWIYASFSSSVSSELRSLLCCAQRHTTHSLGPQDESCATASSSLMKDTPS

As a reminder, the IC50 is the concentration needed to halve the response being measured. A low value points to greater potency in that assay. What is called inhibition is how much of the control response was suppressed. As to `O=C(Nc1ccc(C(=O)N2CCc3cn[nH]c3-c3sccc32)cc1)c1ccc(F)cc1Cl` [Example 1, N-[4-[(4,5-Dihydropyrazolo[3,4-d]thieno[3,2-b]azepin-6(1H)-yl)carbonyl]phenyl]-2-chloro-4-fluorobenzamide], the IC50 stood at 0.34 µM in assay [1] and 2.5 µM on oxytocin receptors. Further, testing at 10 µM on oxytocin receptors gave an inhibition of 93%.

In assay [1], `O=C(Nc1ccc(C(=O)N2CCc3cn[nH]c3-c3ncccc32)cc1)c1ccccc1-c1ccccc1` [Example 365, N-[4-[(4,5-Dihydropyrazolo[3,4-d]pyrido[3,2-b]azepin-6(1H)-yl)carbonyl]phenyl][1,1'-biphenyl]-2-carboxamide] returned an IC50 of 0.0016 µM. In addition, on oxytocin receptors, the IC50 is 2.5 µM and 10 µM produced 57% inhibition.

`Cc1ccc(F)cc1C(=O)Nc1ccc(C(=O)N2CCc3c[nH]nc3-c3ncccc32)cc1` [Example 367, N-[4-[4(4,5-Dihydropyrazolo[3,4-d]pyrido[3,2-b]azepin-6(1H)-yl)carbonyl]phenyl]-5-fluoro-2-methylbenzamide] showed an IC50 in assay [1] of 0.03 µM. In addition, at oxytocin receptors, the IC50 stood at 2.1 µM and the inhibition at 10 µM is 63%.
